Measurements reported in ChEMBL document CHEMBL1125988, “Restricted rotation analogs of decarboxylated S-adenosylmethionine as inhibitors of polyamine biosynthesis” (Bioorg Med Chem Lett, 1991).

What was measured:
[1] = system: L1210; assay: Cellular polyamine (spermine) content was determined in L1210 cells.; type: functional, Mus musculus
[2] = system: L1210; assay: Ornithine decarboxylase activity was measured by the enzymatic decarboxylation of L-[14C-COOH]-ornithine as nmol CO2 produced per hour per mg of protein in L1210 cells; type: functional, Mus musculus
[3] = system: L1210; assay: Compound was evaluated for % of growth control in cultured L1210 cells; type: functional, Mus musculus
[4] = system: L1210; assay: Cellular polyamine (SPD) content was determined in L1210 cells.; type: functional, Mus musculus
[5] = system: L1210; assay: S-adenosyl-methionine decarboxylase activity was measured by the enzymatic decarboxylation of L-[14C-COOH]-methionine as nmol CO2 produced per hour per mg of protein in L1210 cells; type: functional, Mus musculus
[6] = Lethal dose of compound towards active site probes for spermidine and spermine synthase in L1210 cultured cell assay,; type: toxicity, cell-based; settings: mouse, L1210 cells; read-out: LD50 (the source's name)
[7] = system: L1210; assay: Cellular polyamine (putrescine) content was determined in L1210 cells.; type: functional, Mus musculus
[8] = system: L1210; assay: Tested for inhibitory activity on cultured L1210 cells; type: functional, cell-based; settings: Mus musculus

Nc1ncnc2c1ncn2[C@@H]1O[C@H](CSC2CCNC2)[C@@H](O)[C@H]1O (stereo partly specified)
Cellular content [1]: 1000 pM (10e6*cells)-1
Activity [2]: 2.98 (nM of CO2) hr-1 mg-1
Growth [3]: 46%
Cellular content [4]: 410 pM (10e6*cells)-1
Activity [5]: 367 (nM of CO2) hr-1 mg-1
CC50 [6]: 100 µM
Cellular content [7]: 37 pM (10e6*cells)-1
IC50 [8]: 100 µM

Br.C[S+](C[C@H]1O[C@@H](n2cnc3c(N)ncnc32)[C@H](O)[C@@H]1O)C1CCNC1.[Br-] (stereo partly specified)
Cellular content [1]: 1290 pM (10e6*cells)-1
Activity [2]: 6.16 (nM of CO2) hr-1 mg-1
Growth [3]: 58%
Cellular content [4]: 208 pM (10e6*cells)-1
Activity [5]: 500 (nM of CO2) hr-1 mg-1
CC50 [6]: 1000 µM
Cellular content [7]: 170 pM (10e6*cells)-1
IC50 [8]: 1000 µM
